Reference: ChEMBL document CHEMBL5370558, “Modifications of geldanamycin via CuAAC altering affinity to chaperone protein Hsp90 and cytotoxicity” (Eur J Med Chem, 2023)

Assays:
PC-3 = test: Anticancer activity against human PC-3 cells assessed as cell growth inhibition incubated for 72 hrs by SRB assay; assay type: functional, cell-based; details: Homo sapiens, PC-3, 72 h
SK-BR-3 = test: Anticancer activity against human SK-BR-3 cells assessed as cell growth inhibition incubated for 72 hrs by SRB assay; assay type: functional, cell-based; details: Homo sapiens, SK-BR-3, 72 h
[1] = target: Heat shock protein HSP 90-alpha (Homo sapiens) (UniProt P07900)
Description: Binding affinity to recombinant human HSP90alpha assessed as change in entropy by isothermal titration calorimetry assay

SK-OV-3 = test: Anticancer activity against human SK-OV-3 cells assessed as cell growth inhibition incubated for 72 hrs by SRB assay; assay type: functional, cell-based; details: Homo sapiens, SK-OV-3, 72 h
[2] = Cytotoxicity against human HDF cells assessed as cell growth inhibition incubated for 72 hrs by SRB assay; assay type: toxicity, cell-based; details: HDF cells (normal human dermal fibroblasts, NHDF)
[3] = Selectivity index, ratio of IC50 for cytotoxicity against human HDF cells to IC50 for anticancer activity against human SK-OV-3 cells; assay type: cell-based; details: HDF cells versus SK-OV-3 cells, read-out: Ratio IC50
[4] = Selectivity index, ratio of IC50 for cytotoxicity against human HDF cells to IC50 for anticancer activity against human SK-BR-3 cells; assay type: toxicity, cell-based; details: HDF cells versus SK-BR-3 cells, read-out: Ratio IC50
[5] = Selectivity index, ratio of IC50 for cytotoxicity against human HDF cells to IC50 for anticancer activity against human PC-3 cells; assay type: toxicity, cell-based; details: HDF cells versus PC-3 cells, read-out: Ratio IC50

Q: What does the source list for CO[C@H]1/C=C\C=C(/C)C(=O)NC2=CC(=O)C(NCc3cn(C/C=C/c4ccccc4)nn3)=C(C[C@@H](C)C[C@H](OC)[C@H](O)[C@@H](C)/C=C(\C)[C@@H]1OC(N)=O)C2=O?
A: IC50 (PC-3): 1110 nM; IC50 (SK-BR-3): 1160 nM; TdeltaS [1]: -0.884 kcal/mol; IC50 (SK-OV-3): 1080 nM; IC50 at 72 h [2]: 3380 nM

Q: With CO[C@H]1/C=C\C=C(/C)C(=O)NC2=CC(=O)C(NCc3cn(CCCOS(=O)(=O)c4ccc(C)cc4)nn3)=C(C[C@@H](C)C[C@H](OC)[C@H](O)[C@@H](C)/C=C(\C)[C@@H]1OC(N)=O)C2=O as the compound, how does the IC50 (PC-3) read?
A: 460 nM

Q: What about the IC50 (SK-BR-3) of the same compound?
A: 440 nM

Q: And the TdeltaS [1]?
A: 1.41 kcal/mol

Q: And the IC50 (SK-OV-3)?
A: 450 nM

Q: And the IC50 at 72 h [2]?
A: 440 nM

Q: With CO[C@H]1/C=C\C=C(/C)C(=O)NC2=CC(=O)C(NCc3cn(Cc4ccc(Cl)cc4)nn3)=C(C[C@@H](C)C[C@H](OC)[C@H](O)[C@@H](C)/C=C(\C)[C@@H]1OC(N)=O)C2=O as the compound, how does the IC50 (PC-3) read?
A: 230 nM

Q: What about the IC50 (SK-BR-3) of the same compound?
A: 240 nM

Q: And the TdeltaS [1]?
A: -0.86 kcal/mol

Q: And the IC50 (SK-OV-3)?
A: 230 nM

Q: What about the IC50 at 72 h [2] of the same compound?
A: 440 nM

Q: With CO[C@H]1/C=C\C=C(/C)C(=O)NC2=CC(=O)C(NCCn3cc(-c4ccsc4)nn3)=C(C[C@@H](C)C[C@H](OC)[C@H](O)[C@@H](C)/C=C(\C)[C@@H]1OC(N)=O)C2=O as the compound, how does the IC50 (PC-3) read?
A: 990 nM

Q: What about the selectivity ratio [3] of the same compound?
A: 2.2

Q: What about the IC50 (SK-BR-3) of the same compound?
A: 930 nM

Q: What about the selectivity ratio [4] of the same compound?
A: 2.23

Q: And the IC50 (SK-OV-3)?
A: 940 nM

Q: What about the selectivity ratio [5] of the same compound?
A: 2.09

Q: What about the IC50 at 72 h [2] of the same compound?
A: 2070 nM

Q: Which IC50 (PC-3) does the source give for CO[C@H]1/C=C\C=C(/C)C(=O)NC2=CC(=O)C(NCCn3cc(C(=O)O)nn3)=C(C[C@@H](C)C[C@H](OC)[C@H](O)[C@@H](C)/C=C(\C)[C@@H]1OC(N)=O)C2=O here?
A: 870 nM

Q: What about the selectivity ratio [3] of the same compound?
A: 2.06

Q: What about the IC50 (SK-BR-3) of the same compound?
A: 810 nM

Q: And the selectivity ratio [4]?
A: 2.21

Q: What about the IC50 (SK-OV-3) of the same compound?
A: 870 nM

Q: And the selectivity ratio [5]?
A: 2.06

Q: What about the IC50 at 72 h [2] of the same compound?
A: 1790 nM

Q: With CO[C@H]1/C=C\C=C(/C)C(=O)NC2=CC(=O)C(NCc3cn([C@]4(C#N)O[C@H](COC(C)=O)[C@H](OC(C)=O)[C@H](OC(C)=O)[C@H]4OC(C)=O)nn3)=C(C[C@@H](C)C[C@H](OC)[C@H](O)[C@@H](C)/C=C(\C)[C@@H]1OC(N)=O)C2=O as the compound, how does the IC50 (PC-3) read?
A: 760 nM

Q: And the selectivity ratio [3]?
A: 1.33

Q: What about the IC50 (SK-BR-3) of the same compound?
A: 910 nM

Q: What about the selectivity ratio [4] of the same compound?
A: 1.37

Q: And the IC50 (SK-OV-3)?
A: 940 nM

Q: And the selectivity ratio [5]?
A: 1.64

Q: And the IC50 at 72 h [2]?
A: 1250 nM

Q: For CO[C@H]1/C=C\C=C(/C)C(=O)NC2=CC(=O)C(NCc3cn(CC4CCCCC4)nn3)=C(C[C@@H](C)C[C@H](OC)[C@H](O)[C@@H](C)/C=C(\C)[C@@H]1OC(N)=O)C2=O, which IC50 (PC-3) is on record?
A: 1370 nM

Q: What about the selectivity ratio [3] of the same compound?
A: 1.48

Q: What about the IC50 (SK-BR-3) of the same compound?
A: 1370 nM

Q: And the selectivity ratio [4]?
A: 1.53

Q: And the IC50 (SK-OV-3)?
A: 1410 nM

Q: And the selectivity ratio [5]?
A: 1.53

Q: What about the IC50 at 72 h [2] of the same compound?
A: 2090 nM

Q: For CO[C@H]1/C=C\C=C(/C)C(=O)NC2=CC(=O)C(NCc3cn([C@@H]4O[C@H](CO)[C@@H](O)[C@H](O)[C@H]4O)nn3)=C(C[C@@H](C)C[C@H](OC)[C@H](O)[C@@H](C)/C=C(\C)[C@@H]1OC(N)=O)C2=O, which IC50 (PC-3) is on record?
A: 600 nM

Q: And the selectivity ratio [3]?
A: 1.87

Q: And the IC50 (SK-BR-3)?
A: 740 nM

Q: And the selectivity ratio [4]?
A: 1.36

Q: And the IC50 (SK-OV-3)?
A: 540 nM

Q: And the selectivity ratio [5]?
A: 1.68

Q: And the IC50 at 72 h [2]?
A: 1010 nM

Q: With CO[C@H]1/C=C\C=C(/C)C(=O)NC2=CC(=O)C(NCc3c[nH]nn3)=C(C[C@@H](C)C[C@H](OC)[C@H](O)[C@@H](C)/C=C(\C)[C@@H]1OC(N)=O)C2=O as the compound, how does the IC50 (PC-3) read?
A: 690 nM

Q: What about the selectivity ratio [3] of the same compound?
A: 2.57

Q: And the IC50 (SK-BR-3)?
A: 730 nM

Q: And the selectivity ratio [4]?
A: 2.42

Q: What about the IC50 (SK-OV-3) of the same compound?
A: 690 nM

Q: What about the selectivity ratio [5] of the same compound?
A: 2.57

Q: What about the IC50 at 72 h [2] of the same compound?
A: 1770 nM

Q: Which IC50 (PC-3) does the source give for CO[C@H]1/C=C\C=C(/C)C(=O)NC2=CC(=O)C(NCc3cn([C@@H]4O[C@H](COCc5ccccc5)[C@@H](OCc5ccccc5)[C@H](OCc5ccccc5)[C@H]4NC(C)=O)nn3)=C(C[C@@H](C)C[C@H](OC)[C@H](O)[C@@H](C)/C=C(\C)[C@@H]1OC(N)=O)C2=O here?
A: 930 nM

Q: And the selectivity ratio [3]?
A: 1.91

Q: What about the IC50 (SK-BR-3) of the same compound?
A: 770 nM

Q: And the selectivity ratio [4]?
A: 1.96

Q: And the IC50 (SK-OV-3)?
A: 790 nM

Q: And the selectivity ratio [5]?
A: 1.62

Q: And the IC50 at 72 h [2]?
A: 1510 nM

Q: With CO[C@H]1/C=C\C=C(/C)C(=O)NC2=CC(=O)C(NCc3cn(Cc4ccc(C#N)cc4)nn3)=C(C[C@@H](C)C[C@H](OC)[C@H](O)[C@@H](C)/C=C(\C)[C@@H]1OC(N)=O)C2=O as the compound, how does the IC50 (PC-3) read?
A: 850 nM

Q: What about the selectivity ratio [3] of the same compound?
A: 1.89

Q: What about the IC50 (SK-BR-3) of the same compound?
A: 930 nM

Q: What about the selectivity ratio [4] of the same compound?
A: 1.91

Q: And the IC50 (SK-OV-3)?
A: 940 nM

Q: And the selectivity ratio [5]?
A: 2.09

Q: What about the IC50 at 72 h [2] of the same compound?
A: 1780 nM

Q: For CO[C@H]1/C=C\C=C(/C)C(=O)NC2=CC(=O)C(NCCn3cc(-c4ccccn4)nn3)=C(C[C@@H](C)C[C@H](OC)[C@H](O)[C@@H](C)/C=C(\C)[C@@H]1OC(N)=O)C2=O, which IC50 (PC-3) is on record?
A: 1210 nM

Q: What about the selectivity ratio [3] of the same compound?
A: 1.85

Q: And the IC50 (SK-BR-3)?
A: 1160 nM

Q: What about the selectivity ratio [4] of the same compound?
A: 2.08

Q: What about the IC50 (SK-OV-3) of the same compound?
A: 1300 nM

Q: And the selectivity ratio [5]?
A: 1.99

Q: What about the IC50 at 72 h [2] of the same compound?
A: 2410 nM

Q: Which IC50 (PC-3) does the source give for CO[C@H]1/C=C\C=C(/C)C(=O)NC2=CC(=O)C(NCc3cn([C@@H]4OC[C@@H](OC(C)=O)[C@H](OC(C)=O)[C@H]4OC(C)=O)nn3)=C(C[C@@H](C)C[C@H](OC)[C@H](O)[C@@H](C)/C=C(\C)[C@@H]1OC(N)=O)C2=O here?
A: 3520 nM

Q: And the selectivity ratio [3]?
A: 1.23

Q: And the IC50 (SK-BR-3)?
A: 4360 nM

Q: What about the selectivity ratio [4] of the same compound?
A: 1.05

Q: And the IC50 (SK-OV-3)?
A: 3730 nM

Q: What about the selectivity ratio [5] of the same compound?
A: 1.3

Q: What about the IC50 at 72 h [2] of the same compound?
A: 4590 nM

Q: For CO[C@H]1/C=C\C=C(/C)C(=O)NC2=CC(=O)C(NCc3cn(CCN4C(=O)c5ccccc5C4=O)nn3)=C(C[C@@H](C)C[C@H](OC)[C@H](O)[C@@H](C)/C=C(\C)[C@@H]1OC(N)=O)C2=O, which IC50 (PC-3) is on record?
A: 1290 nM

Q: What about the selectivity ratio [3] of the same compound?
A: 1.53

Q: What about the IC50 (SK-BR-3) of the same compound?
A: 1220 nM

Q: What about the selectivity ratio [4] of the same compound?
A: 1.61

Q: And the IC50 (SK-OV-3)?
A: 1280 nM

Q: And the selectivity ratio [5]?
A: 1.52

Q: And the IC50 at 72 h [2]?
A: 1960 nM

Q: For C#CCNC1=C2C[C@@H](C)C[C@H](OC)[C@H](O)[C@@H](C)/C=C(\C)[C@H](OC(N)=O)[C@@H](OC)/C=C\C=C(/C)C(=O)NC(=CC1=O)C2=O, which IC50 (PC-3) is on record?
A: 4090 nM

Q: And the selectivity ratio [3]?
A: 1.74

Q: What about the IC50 (SK-BR-3) of the same compound?
A: 4010 nM

Q: What about the selectivity ratio [4] of the same compound?
A: 1.84

Q: What about the IC50 (SK-OV-3) of the same compound?
A: 4230 nM

Q: What about the selectivity ratio [5] of the same compound?
A: 1.8

Q: What about the IC50 at 72 h [2] of the same compound?
A: 7360 nM

Q: With CO[C@H]1/C=C\C=C(/C)C(=O)NC2=CC(=O)C(NCc3cn(Cc4ccc([N+](=O)[O-])o4)nn3)=C(C[C@@H](C)C[C@H](OC)[C@H](O)[C@@H](C)/C=C(\C)[C@@H]1OC(N)=O)C2=O as the compound, how does the IC50 (PC-3) read?
A: 2150 nM

Q: And the selectivity ratio [3]?
A: 1.83

Q: And the IC50 (SK-BR-3)?
A: 2120 nM

Q: And the selectivity ratio [4]?
A: 1.8

Q: And the IC50 (SK-OV-3)?
A: 2090 nM

Q: What about the selectivity ratio [5] of the same compound?
A: 1.78

Q: And the IC50 at 72 h [2]?
A: 3820 nM
